Source: patent US20220220123A1, “AMORPHOUS AND CRYSTALLINE FORMS OF RELUGOLIX” (DR. REDDY'S LABORATORIES LIMITED, priority 2019, published 2022)

Experiment: storage stability of solid forms of relugolix
Format: physicochemical

| stability (found stable; in words) (no storage conditions or duration printed) | stability of the crystalline form on storage (2-8° C.) | stability of the crystalline form on storage (25° C. and 60% RH (relative humidity)) | stability of the crystalline form on storage (40° C. and 75% RH (relative humidity)) | SMILES |
| --- | --- | --- | --- | --- |
| stable |  |  |  | CONC(=O)Nc1ccc(-c2sc3c(c2CN(C)C)c(=O)n(-c2ccc(OC)nn2)c(=O)n3Cc2c(F)cccc2F)cc1 [amorphous relugolix] |
|  | stable for at least three months | stable for at least three months | stable for at least three months | CONC(=O)Nc1ccc(-c2sc3c(c2CN(C)C)c(=O)n(-c2ccc(OC)nn2)c(=O)n3Cc2c(F)cccc2F)cc1 [crystalline form R1] |
